Where two headings read alike, the source gives them in different places. One block for each molecule: values may come before it. Bridge positions count the residues as written; N and C are the ends. Square brackets hold non-standard residues; d marks the D form. Ends that are not written are not given here. Peptide text beside a SMILES is read from it. Pen = CC(C)(S)[C@H](N)C(=O)O
What was measured:
[1] = test system: human tonsil T cells (responders) with irradiated human mononuclear stimulator cells; T-cell proliferation; format: cell-based; conditions: for inhibitory effect on T-cell proliferation: FIG. 3, tested at 125, 250 and 500 μM; for Inhibition of T-cell Proliferation (%): peptides at 500 μM; for effectiveness in inhibiting responder T-cell proliferation: FIG. 2, tested at 50, 150, 250, 350, 500 and 750 μM
From the text: The one-way MLR has been previously described (Kruisbeek et al., Current Protocols in Immunology, Proliferative Assays for T-Cell Function, '3.12.1-3.12.14 (1991), which is incorporated herein by reference). Specifically, human tonsil T cells were suspended at a concentration of 2−4×10^6 cells/ml in cell culture medium (RPMI), for use as responders. Stimulator cells were human mononuclear cells isolated from first Ficoll separation of peripheral blood (buffy coat) and were suspended at a concentration of 2−4×10^6 cells/ml in cell culture medium (RPMI). The stimulator cells were inactivated before use by treatment with 3,000-5,000 rad of ionizing radiation from γ137Cs source. One hundred μl of each cell suspension were combined in each well of a 96-well plate in the absence or presence of varying concentrations of test polypeptides, as detailed below. Cell proliferation was assessed after 72 hours, by 3H-thymidine addition to each well (1 μCi/well, 67 Ci/mmol) with incubation for six hours. The cells were harvested using a PHD Cell Harvester (Cambridge Technology, Inc., Watertown, Mass.); the incorporated 3H was assessed using a liquid scintillation counter (Packard Instrument, Inc., Donner's Grove, Ill.).
In FIGS. 2 and 3, the Y-axis values are mean percentage ±SE of proliferation of responders. “2s” refers to irradiated buffy coat cells, and “2r” refers to T-lymphocytes derived from tonsil. “2s2r” refers to non-treated, mixed lymphocyte sample, which is the positive control (represented by dashed line). Inhibition of proliferation by anti-CD11a antibody (Pharmingen, anti-human CD11a) was used as a control for inhibition of the LFA-1/ICAM-1 interaction. These polypeptides are derived from the human LFA-1 β (CD18) subunit.

[2] = target: intracellular adhesion molecule (ICAM-1; CD54) (UniProt P05362 28-532, limits assumed); assay: cell-based or functional assay
[3] = linear D-peptides (*3), minus value = peptide activated T-lymphocytes

intracellular adhesion molecule (ICAM-1; CD54), sequence (P05362 28-532 limits assumed): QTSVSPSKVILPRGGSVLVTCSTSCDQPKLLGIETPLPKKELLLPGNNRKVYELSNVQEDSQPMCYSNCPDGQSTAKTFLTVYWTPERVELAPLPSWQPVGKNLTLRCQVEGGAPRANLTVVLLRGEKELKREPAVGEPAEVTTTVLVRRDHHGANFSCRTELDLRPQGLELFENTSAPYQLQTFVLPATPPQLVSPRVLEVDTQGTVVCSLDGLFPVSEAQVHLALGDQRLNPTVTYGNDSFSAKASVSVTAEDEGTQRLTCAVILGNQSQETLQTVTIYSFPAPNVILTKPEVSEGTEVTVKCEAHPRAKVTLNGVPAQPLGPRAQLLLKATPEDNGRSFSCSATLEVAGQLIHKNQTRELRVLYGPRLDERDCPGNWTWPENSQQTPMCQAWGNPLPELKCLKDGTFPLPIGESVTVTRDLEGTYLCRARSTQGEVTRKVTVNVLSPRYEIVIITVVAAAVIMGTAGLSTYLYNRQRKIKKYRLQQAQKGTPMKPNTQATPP

Molecule: H-GGDLLRALNE-OH (H-GG[dD][dL][dL][dR][dA][dL][dN][dE]-OH) [D-LBER]
inhibitory effect on T-cell proliferation [1]: lost the biological function to inhibit T-cell proliferation | Inhibition of T-cell Proliferation (%) [1, 3]: −90.5(*4) %

Molecule: H-DLRNVKKLGG-H (H-[dD][dL][dR][dN][dV][dK][dK][dL]GG; not fully specified; also: C-terminus written -H) [D-LBEC]
inhibitory effect on T-cell proliferation [1]: did not show any inhibitory effects | Inhibition of T-cell Proliferation (%) [1, 3]: −47.6(*4) %

Molecule: LBEL: linear L-peptide of Table 2, sequence not printed (DLSYSLDDLR)
Inhibition of T-cell Proliferation (%) ([1]; linear L-peptides (*1), second value of cell 'x/y'): N.D./24.8%

Molecule: CC(C)C[C@@H]1NC(=O)[C@H](CCCCN)NC(=O)[C@H](CCCCN)NC(=O)[C@H](C(C)C)NC(=O)[C@H](CC(N)=O)NC(=O)[C@H](CCCNC(=N)N)NC(=O)[C@H](CC(C)C)NC(=O)[C@H](CC(=O)O)NC(=O)[C@@H](N)C(C)(C)SSC[C@@H](C(N)=O)NC(=O)CNC(=O)CNC1=O [cLBEC, H-PenDLRNVKKLGGC-NH2] (H-[Pen]DLRNVKKLGGC-NH2; disulfide 1-12)
effectiveness in inhibiting responder T-cell proliferation [1]: more effective than LBE

Molecule: CC(C)C[C@@H]1NC(=O)[C@H](CC(=O)O)NC(=O)[C@H](CC(=O)O)NC(=O)[C@H](CC(C)C)NC(=O)[C@H](CO)NC(=O)[C@H](Cc2ccc(O)cc2)NC(=O)[C@H](CO)NC(=O)[C@H](CC(C)C)NC(=O)[C@H](CC(=O)O)NC(=O)[C@@H](N)C(C)(C)SSC[C@@H](C(N)=O)NC(=O)[C@H](CCCNC(=N)N)NC1=O [cLBEL, H-PenDLSYSLDDLRC-NH2] (H-[Pen]DLSYSLDDLRC-NH2; disulfide 1-12)
effectiveness in inhibiting responder T-cell proliferation [1]: more effective than LBE

Molecule: CC(C)C[C@@H](NC(=O)[C@H](N)CC(=O)O)C(=O)N[C@H](CO)C(=O)N[C@H](Cc1ccc(O)cc1)C(=O)N[C@H](CO)C(=O)N[C@H](CC(C)C)C(=O)N[C@H](CC(=O)O)C(=O)N[C@H](CC(=O)O)C(=O)N[C@H](CC(C)C)C(=O)N[C@H](CCCNC(=N)N)C(=O)O [D-LBEL, H-DLSYSLDDLR-OH] (H-[dD][dL][dS][dY][dS][dL][dD][dD][dL][dR]-OH)
inhibiting T-cell proliferation in MLR assays [1]: significantly effective | inhibitory effect on T-cell proliferation [1]: amazing inhibitory effect, which was much more effective than either LBE or cLBEL

B2: D-LBER (peptide)
peptide: H-GG[dD][dL][dL][dR][dA][dL][dN][dE]-OH
SMILES: CC(C)C[C@@H](NC(=O)[C@@H](C)NC(=O)[C@@H](CCCNC(=N)N)NC(=O)[C@@H](CC(C)C)NC(=O)[C@@H](CC(C)C)NC(=O)[C@@H](CC(=O)O)NC(=O)CNC(=O)CN)C(=O)N[C@H](CC(N)=O)C(=O)N[C@H](CCC(=O)O)C(=O)O
Inhibition of T-cell Proliferation (%) in mixed lymphocyte reaction, peptide at 500 µM [2]: -90.5%

Second part, the molecule after the results:

Inhibition of T-cell Proliferation (%) in mixed lymphocyte reaction, peptide at 500 µM [2]: 56.5%
B1: D-LBEL (peptide)
peptide: H-[dD][dL][dS][dY][dS][dL][dD][dD][dL][dR]-OH
SMILES: CC(C)C[C@@H](NC(=O)[C@H](N)CC(=O)O)C(=O)N[C@H](CO)C(=O)N[C@H](Cc1ccc(O)cc1)C(=O)N[C@H](CO)C(=O)N[C@H](CC(C)C)C(=O)N[C@H](CC(=O)O)C(=O)N[C@H](CC(=O)O)C(=O)N[C@H](CC(C)C)C(=O)N[C@H](CCCNC(=N)N)C(=O)O

Inhibition of T-cell Proliferation (%) in mixed lymphocyte reaction, peptide at 500 µM [2]: 18%
B3: cLBEC (peptide)
peptide: H-[Pen]DLRNVKKLGGC-NH2
modifications: disulfide 1-12
SMILES: CC(C)C[C@@H]1NC(=O)[C@H](CCCCN)NC(=O)[C@H](CCCCN)NC(=O)[C@H](C(C)C)NC(=O)[C@H](CC(N)=O)NC(=O)[C@H](CCCNC(=N)N)NC(=O)[C@H](CC(C)C)NC(=O)[C@H](CC(=O)O)NC(=O)[C@@H](N)C(C)(C)SSC[C@@H](C(N)=O)NC(=O)CNC(=O)CNC1=O

Inhibition of T-cell Proliferation (%) in mixed lymphocyte reaction, peptide at 500 µM [2]: -47.6%
Molecule: H-[dD][dL][dR][dN][dV][dK][dK][dL]GG (not fully specified (C-terminus)) [D-LBEC]

Inhibition of T-cell Proliferation (%) in mixed lymphocyte reaction, peptide at 500 µM [2]: 24.8%
Molecule: DLSYSLDDLR [LBEL (linear L-peptide)]

Inhibition of T-cell Proliferation (%) in mixed lymphocyte reaction, peptide at 500 µM [2]: 18%
B4: cLBEL (peptide)
peptide: H-[Pen]DLSYSLDDLRC-NH2
modifications: disulfide 1-12
SMILES: CC(C)C[C@@H]1NC(=O)[C@H](CC(=O)O)NC(=O)[C@H](CC(=O)O)NC(=O)[C@H](CC(C)C)NC(=O)[C@H](CO)NC(=O)[C@H](Cc2ccc(O)cc2)NC(=O)[C@H](CO)NC(=O)[C@H](CC(C)C)NC(=O)[C@H](CC(=O)O)NC(=O)[C@@H](N)C(C)(C)SSC[C@@H](C(N)=O)NC(=O)[C@H](CCCNC(=N)N)NC1=O
